# Where two headings read alike, the source gives them in different places.
# Columns and labels:
# [1] = for supernatant concentration reached at 3 hrs: more efficient stirring, pH 9.5, nominal 1 mM
# [2] = Dissolution of niclosamide solvates (water precipitate, acetone and ethanol recrystallized) at pH 9.3; conditions: for solubility (equilibrium supernatant concentration several days after dissolution): pH 9.3; for initial dissolution rate, intrinsic parameter: pH 9.3 buffer, 3.5 mgs in 10 mls
# From the text: To start to evaluate the various expected polymorphs and to try and obtain a morphology that was perhaps like the purchased materials (of unknown processing), three samples were made i.e., the “water-hydrate” precipitated from ethanol into excess water and two that were recrystallized from acetone and from ethanol.
# It was filtered on a sintered glass filter, washed three times with deionized water, and dried. The material was ground by mortar and pestle ready for the dissolution test and viewed microscopically to evaluate its crystal morphology.
# Each material was also viewed microscopically to evaluate their crystal morphologies.
# Dissolution of the solvates. […] 2 uL aliquots were taken directly from the stirred solution in the 20 mL scintillation vial at appropriate time intervals and absorbance at 333 nm was measured by nanodrop spectrophotometer.
# [3] = same pH as Yomesan extraction (pH 9.3)
# [4] = assay type: physicochemical
# From the text: pH=pKa+Log10[Nic−ve]/[NicOH] Eqn 1
# pHp=pKa+log(S−So)/So Eqn 4
# So=the molar intrinsic solubility of the undissociated acid (NicOH), and S=the molar concentration of the salt form initially added.
# [5] = Equilibrium dissolution of AK Sci niclosamide versus pH (supernatant concentration by UV/Vis at 333 nm); conditions: for Average [Nic] (uM) UV/Vis, 333 nm), supernatant concentration: 20° C.
# [6] = Literature aqueous solubility of niclosamide; conditions: van Tonder et al [17], converted
# [7] = test system: oxidative phosphorylation; conditions: cited from earlier work
# [8] = test system: SARS-CoV-2 in Calu-3 cells; conditions: Ko et al [34]; cited from earlier work
# [9] = cited from earlier work
# [10] = Dissolution and conversion of Sigma niclosamide (3 hrs and overnight stirring)
# [11] = test system: SARS-CoV-2 in Vero 6 cells; conditions: Vero 6 cells, Jeon et al [14]; read-out: IC50 for viral replication; cited from earlier work
# GR = conditions: read-out: relative trans-activation potency (EC50); cited from earlier work
# [12] = Supersaturated solution precipitation of niclosamide: amount in solution; conditions: pH 9.3, equilibrated
# [13] = pH 7.09
compound,measurement,setting,value
O=C(Nc1ccc([N+](=O)[O-])cc1Cl)c1cc(Cl)ccc1O [AK Sci Niclosamide],supernatant concentration reached at 3 hrs,[1]; listed as AK Sci niclosamide,564 µM
same,"fitted logarithmic dissolution rate, pre-ln factor","[1]; pH 8.62, nominal 1 mM, first hour",22
same,"fitted logarithmic dissolution rate, pre-ln factor","[1]; pH 8.72, nominal 1 mM",24
same,"fitted logarithmic dissolution rate, pre-ln factor","[1]; pH 9.06, nominal 1 mM",38
same,initial rate of dissolution / extraction over first three minutes,[1]; pH 9.3 buffer,51.7 µM/min
same,intrinsic dissolution rate,"[1]; pH 9.3 buffer, converted from uM/min",0.28 µg/s
same,"fitted logarithmic dissolution rate, pre-ln factor","[1]; pH 9.36, nominal 1 mM",71
same,solubility (equilibrium supernatant concentration several days after dissolution),[2],~383 µM
same,clear supernatant solution concentration,[3],520 µM
same,pKa fitted from pHp curve to supernatant concentration data,[4]; So 2.53 uM,7.12
same,"Average [Nic] (uM) UV/Vis, 333 nm), supernatant concentration","[5]; measured pH 3.64, stirred to equilibrium (48 hrs)",2.53 µM
same,"Average [Nic] (uM) UV/Vis, 333 nm), supernatant concentration","[5]; measured pH 7.05, 48 hrs",8.68 µM
same,"Average [Nic] (uM) UV/Vis, 333 nm), supernatant concentration","[5]; measured pH 7.64, 48 hrs",16.75 µM
same,"Average [Nic] (uM) UV/Vis, 333 nm), supernatant concentration","[5]; measured pH 8.06, 48 hrs",25.83 µM
same,"Average [Nic] (uM) UV/Vis, 333 nm), supernatant concentration","[5]; measured pH 8.26, 48 hrs",47.26 µM
same,"Average [Nic] (uM) UV/Vis, 333 nm), supernatant concentration","[5]; measured pH 8.53, 48 hrs",83.31 µM
same,"Average [Nic] (uM) UV/Vis, 333 nm), supernatant concentration","[5]; measured pH 8.75, 48 hrs",137.29 µM
same,"Average [Nic] (uM) UV/Vis, 333 nm), supernatant concentration","[5]; measured pH 9.04, 48 hrs",215.66 µM
same,"Average [Nic] (uM) UV/Vis, 333 nm), supernatant concentration","[5]; measured pH 9.22, 48 hrs",344.32 µM
same,"Average [Nic] (uM) UV/Vis, 333 nm), supernatant concentration","[5]; measured pH 9.32, 48 hrs",382.68 µM
same,"Average [Nic] (uM) UV/Vis, 333 nm), supernatant concentration","[5]; measured pH 9.4, 48 hrs",466.14 µM
same,"Average [Nic] (uM) UV/Vis, 333 nm), supernatant concentration","[5]; measured pH 9.63, 48 hrs",703.26 µM
same,limiting (intrinsic) solubility So of the protonated acid,[5]; pH 3.66,2.53 µM
same,polymorph stability of excess powder in stirred buffer,"[5]; stirred 24 hrs and longer, days, in presence of original powder",did not readily convert to the less soluble hydrates
O=C(Nc1ccc([N+](=O)[O-])cc1Cl)c1cc(Cl)ccc1O [Anhydrate],solubility of crystal forms in distilled water,[6],40.4 µM
N#CC(C#N)=NNc1ccc(OC(F)(F)F)cc1 [FCCP],concentration of uncoupling activity,[7],100 nM
O.O=C(Nc1ccc([N+](=O)[O-])cc1Cl)c1cc(Cl)ccc1O [Monohydrates HA],solubility of crystal forms in distilled water,[6],2.9 µM
O.O=C(Nc1ccc([N+](=O)[O-])cc1Cl)c1cc(Cl)ccc1O [Monohydrates HB],solubility of crystal forms in distilled water,[6],1.87 µM
N=C(N)c1ccc2cc(OC(=O)c3ccc(N=C(N)N)cc3)ccc2c1 [Nafamostat],antiviral activity,[8],few nanomolar
O=C(Nc1ccc([N+](=O)[O-])cc1Cl)c1cc(Cl)ccc1O [NicAcetone-recrys],solubility (equilibrium supernatant concentration several days after dissolution),[2]; listed as acetone recrystallized material,79.4 µM
same,"initial dissolution rate, intrinsic parameter",[2],0.0369 µM/mg
O=C(Nc1ccc([N+](=O)[O-])cc1Cl)c1cc(Cl)ccc1O [NicEtOH-recrys],"initial dissolution rate, intrinsic parameter",[2],0.0439 µM/mg
O=C(Nc1ccc([N+](=O)[O-])cc1Cl)c1cc(Cl)ccc1O [NicH20ppt],solubility (equilibrium supernatant concentration several days after dissolution),[2]; listed as water solvate,132.6 µM
same,"initial dissolution rate, intrinsic parameter",[2],0.104 µM/mg
O=C(Nc1ccc([N+](=O)[O-])cc1Cl)c1cc(Cl)ccc1O [Nic−ve],solubility limit of the negatively charged salt,[5]; pH 9.5,~640 µM
same,solubility limit of the deprotonated salt,[5]; pH 9.63,at least 703.6 uM
same,solubility limit of the negatively charged salt,[5]; pH not stated at the place,≥ 670 µM
Oc1c(Cl)c(Cl)c(Cl)c(Cl)c1Cl [PCP],concentration of uncoupling activity,[7]; Terada [39],1000 nM
same,pKa,[9]; Terada [39],4.80
CC(C)(C)c1cc(Cl)cc(C(=O)Nc2ccc([N+](=O)[O-])cc2Cl)c1O [S-13],concentration of uncoupling activity,[7]; Terada [39],30 nM
same,pKa,[9]; Terada [39],6.57
"CC(C)(C)c1cc(C=C(C#N)C#N)cc(C(C)(C)C)c1O [SF 6847, 3,5-Di-tert-butyl-4-hydroxy-benzylidene-Malononitrile]",concentration of uncoupling activity,[7]; Terada [39],10 nM
same,pKa,[9]; Terada [39],6.83
O=C(Nc1ccc([N+](=O)[O-])cc1Cl)c1cc(Cl)ccc1O [Sigma niclosamide],supernatant concentration reached at 3 hrs,[1],680 µM
same,"fitted logarithmic dissolution rate, factor of ln(x)","[1]; pH 9.44 buffer, more optimized (standardized) stirring",116
same,reduction of amount of niclosamide in supernatant solution after overnight equilibration,[10]; over the whole pH range,~3.5 ×
same,solubility after overnight equilibration,[10]; pH 9.3,103 µM
same,polymorph stability of excess powder in stirred buffer,[10]; several hours after the first 3 hrs,converted to a much lower solubility polymorph
same,loss of material concentration from 3 hrs to 24 hrs,[10]; ~pH 9.5,434 µM
same,supernatant niclosamide concentration at 3 hrs,[10]; ~pH 9.5,681 µM
same,supernatant niclosamide concentration after 24 hrs (overnight stirring),"[10]; ~pH 9.5, filtered 0.22 um",247 µM
FC(F)(F)c1nc2c(Cl)c(Cl)c(Cl)c(Cl)c2[nH]1 [TTFB],concentration of uncoupling activity,[7]; Terada [39],100 nM
same,pKa,[9]; in 50% ethanol,5.5
CCN(CC)CCCC(C)Nc1ccnc2cc(Cl)ccc12 (centres unmarked) [chloroquine],IC50,[11],9.12 µM
O=C(O)c1ccccc1Nc1cccc(C(F)(F)F)c1 [flufenamic acid],concentration of uncoupling activity,[7]; Terada [39],50000 nM
same,pKa,[9]; Terada [39],3.85
CCC(=O)O[C@]1(C(=O)SCF)[C@H](C)C[C@H]2[C@@H]3C[C@H](F)C4=CC(=O)C=C[C@]4(C)[C@@]3(F)[C@@H](O)C[C@@]21C [fluticasone propionate],EC50,GR,0.32 ± 0.04 nM
Cc1cccc(C)c1OCC(=O)N[C@@H](Cc1ccccc1)[C@@H](O)C[C@H](Cc1ccccc1)NC(=O)[C@H](C(C)C)N1CCCNC1=O [lopinavir],IC50,[11],7.28 µM
O=C(Nc1ccc([N+](=O)[O-])cc1Cl)c1cc(Cl)ccc1O [precipitated material],solubility of material precipitated in situ from supersaturated solution,[12],180.9 µM
O.O=C(Nc1ccc([N+](=O)[O-])cc1Cl)c1cc(Cl)ccc1O [presumed monohydrate],expected concentration in solution from pHp model,[4]; pH 6,1 uM
same,solubility,[13],1.24 µM
